What was measured:
U87-MG human glioma cell = assay: Cell proliferation analysis (MTT); format: cell-based; details: for activity at 10 µM / inhibition at 10 µM: Homo sapiens, U-87 MG, 48 h; for activity at 10 µM / inhibition at 10 µM / Cell Proliferation (%): two days, MTT, 10 µM
Protocol: (§1) U87-MG and U138-MG human glioma cell, were incubated with 10% fetal bovine serum (FBS) (Gibco, 10500-064), 1% L-glutamine (Gibco, 25030-024), in a humidified incubator with 5% CO2 at 37 °C. The cells were contained in DMEM High Glucose (Gibco, 41966-029) supplemented with 1% penicillin-streptomycin (P/S) (Gibco 15140-122) solution. The cytotoxic effects of the target compounds on U87-MG and U138-MG cell lines were assessed using the MTT (Thiazolyl Blue Tetrazolium Bromide) method. 7×10^3 cells were seeded into a 96-well plate in 100 µl DMEM High Glucose 10% FBS and 1% P/S. 24 hours after cell incubation, each target compound was added at a dose of 10 µM and the drug treatment was carried out for two days. After the incubation period, 10 µL of MTT solution was added to each well (5 mg/ml in PBS). After 2 hours, MTT solutions were removed from the wells. Then, 100 µl DMSO was added, and mixed to dissolve the formazan crystals. Cell proliferation was analysed by measuring the absorbance of dissolved formazan at a wavelength of 570 nm.
(§2) IC50 values were determined using the same method as above wherein the cells were treated with the target compounds at different doses.

[1] = test system: U138-MG human glioma cell; assay: Cell proliferation analysis (MTT); format: cell-based; details: 10 µM, two days, MTT; for activity at 10 µM / inhibition at 10 µM: Homo sapiens, 48 h
Protocol: as §1, §2

Structure (SMILES) | activity at 10 µM (U87-MG human glioma cell) [%] | inhibition at 10 µM (U87-MG human glioma cell) [%] | activity at 10 µM [1] [%] | inhibition at 10 µM [1] [%] | top 5 target compounds whose treatment resulted in the lowest proliferation (U87-MG human glioma cell; ranking) | Cell Proliferation (%) (U87-MG human glioma cell) | Cell Proliferation (%) [1] [%]
O=C1CCc2cc(OCC3CC(c4c(F)cccc4Cl)=NO3)ccc2N1 (stereo not drawn) [TR-G150, 6-((3-(2-chloro-6-fluorophenyl)-4,5-dihydroisoxazol-5-yl)methoxy)-3,4-dihydroquinolm-2(1H)-one] | 97 | 3 | 79 | 21 | – | – | –
O=C1CCc2cc(OCCCCc3nnnn3C3CCCCC3)ccc2N1Cc1ccc(F)cc1 [TR-G112, 6-(4-(1-cyclohexyl-1H-tetrazol-5-yl)butoxy)-1-(4-fluorobenzyl)-3,4-dihydroquinolin-2(1H)-one] | 60 | 41 | 43 | 58 | – | – | –
O=C1CCc2cc(OC(=O)CCl)ccc2N1 [TR-G016, 2-oxo-1,2,3,4-tetrahydroquinolin-6-yl 2-chloroacetate] | 78 | 22 | 95 | 5 | – | – | –
O=C(COc1ccc2c(c1)CCC(=O)N2)N/N=C/c1ccc(-c2ccc(Cl)cc2)cc1 [TR-G146, (E)-N'-((4'-chloro-[1,1'-biphenyl)-4-yl)methylene)-2-((2-oxo-1,2,3,4-tetrahydroquinolin-6-yl)oxy)acetohydrazide] | – | 37 | – | 21 | – | – | –
O=C1CCc2cc(OC(=O)c3cc(C(F)(F)F)ccc3F)ccc2N1 [TR-G036, 2-oxo-1,2,3,4-tetrahydroquinolin-6-yl 2fluoro-5-(trifluoromethyl)benzoate] | 68 | 32 | 81 | 19 | – | – | –
O=C1CCc2cc(OC(=O)c3cccc([N+](=O)[O-])c3)ccc2N1 [TR-G081, 2-oxo-1,2,3,4-tetrahydroquinolin-6-yl 3-nitrobenzoate] | 65 | 35 | 108 | -8 | – | – | –
CC(C)(C)c1ccc(COc2ccc3c(c2)CCC(=O)N3)cc1 [TR-G030, 6-((4-(tert-butyl)benzyl)oxy)-3,4-dihydroquinolin-2(1H)-one] | 53 | 47 | 63 | 38 | – | – | –
CCCCCCn1cc(COc2ccc3c(c2)CCC(=O)N3)nn1 [TR-G125, 6-((1-hexyl-1H-1,2,3-triazol-4-yl)methoxy)-3,4-dihydroquinolin-2(1H)-one] | 64 | 36 | 82 | 18 | – | – | –
O=C1CCc2cc(OCCCCc3nnnn3C3CCCCC3)ccc2N1Cc1ccccc1 [TR-G110, 1-benzyl-6-(4-(1-cyclohexyl-1H-tetrazol-5-yl)butoxy)-3,4-dihydroquinolin-2(1H)-one] | 58 | 42 | 69 | 31 | – | – | –
O=C(COc1ccc2c(c1)CCC(=O)N2)N/N=C/c1ccc(-c2ccccc2)cc1 [TR-G145, (E)-N'-([1,1'-biphenyl}-4-ylmethylene)-2-((2-oxo-1,2,3,4-tetrahydroquinolin-6-yl)oxy)acetohydrazide] | 49 | 51 | 59 | 41 | – | – | –
O=C1CCc2cc(OC(=O)Nc3ccccc3Cl)ccc2N1 [TR-G096, 2-oxo-1,2,3,4-tetrahydroquinolin-6-yl (2-chlorophenyl)carbamate] | 75 | 25 | 70 | 30 | – | – | –
O=C1CCc2cc(OCc3cn(-c4cccc5[nH]ncc45)nn3)ccc2N1 [TR-G078, 6-((1-(1H-indazol-4-yl)-1H-1,2,3-triazol-4-yl)methoxy)-3,4-dihydroquinolin-2(1H)-one] | 44 | 56 | 57 | 43 | top 5 | – | –
O=C(COc1ccc2c(c1)CCC(=O)N2)N/N=C/c1ccccn1 [TR-G059, (E)-2-((2-oxo-1,2,3,4-tetrahydroquinolin-6-yl)oxy)-N'-(pyridin-2-ylmethylene)acetohydrazide] | 79 | 21 | 81 | 20 | – | – | –
CCCc1ccc(/C=N/NC(=O)COc2ccc3c(c2)CCC(=O)N3)cc1 [TR-G028, (E)-2-((2-oxo-1,2,3,4-tetrahydroquinolin-6-yl)oxy)-N'-(4-propylbenzylidene)acetohydrazide] | 64 | 36 | 106 | -6 | – | – | –
Cc1ccccc1NC(=O)Oc1ccc2c(c1)CCC(=O)N2 [TR-G134, 2-oxo-1,2,3,4-tetrahydroquinolin-6-yl-o-tolylcarbamate] | – | 30 | – | 27 | – | 70 | 73
O=C1CCc2cc(OCc3cn(CCOCc4ccccc4)nn3)ccc2N1 [TR-G080, 6-((1-(2-(benzyloxy)ethyl)-1H-1,2,3-triazol-4-yl)methoxy)-3,4-dihydroquinolin-2(1H)-one] | 79 | 21 | 71 | 29 | – | – | –
CC(C)CCn1cc(COc2ccc3c(c2)CCC(=O)N3)nn1 [TR-G052, 6-((1-isopentyl-1H-1,2,3-triazol-4-yl)methoxy)-3,4-dihydroquinolin-2(1H)-one] | 85 | 15 | 52 | 48 | – | – | –
O=C1CCc2cc(OCC3CC(c4ccc(F)cc4)=NO3)ccc2N1 (stereo not drawn) [TR-G051, 6-((3-(4-fluorophenyl)-4,5-dihydroisoxazol-5-yl)methoxy)-3,4-dihydroquinolin-2(1H)-one] | 79 | 21 | 67 | 33 | – | – | –
NC(=O)COCCOc1ccc2c(c1)CCC(=O)N2 [TR-G126, 2-(2-((2-oxo-1,2,3,4-tetrahydroquinolin-6-yl)oxy)ethoxy)acetamide] | 70 | 30 | 97 | 3 | – | – | –
O=C(COc1ccc2c(c1)CCC(=O)N2)Nc1ccc(N2CCOCC2)cc1 [TR-G120, N-(4-morpholinophenyl)-2-((2-oxo-1,2,3,4-tetrahydroquinolin-6-yl)oxy)acetamide] | 68 | 33 | 67 | 34 | – | – | –
CC(=O)c1ccc(-n2cc(COc3ccc4c(c3)CCC(=O)N4)nn2)cc1 [TR-G093, 6-((1-(4-acetylphenyl)-1H-1,2,3-triazol-4-yl)methoxy)-3,4-dihydroquinolin-2(1H)-one] | 55 | 45 | 63 | 38 | – | – | –
O=C(COc1ccc2c(c1)CCC(=O)N2)N/N=C1\C(=O)Nc2ccc([N+](=O)[O-])cc21 [TR-G056, (Z)-N'-(5-nitro-2-oxoindolin-3-ylidene)-2-((2-oxo-1,2,3,4-tetrahydroquinolin-6-yl)oxy)acetohydrazide] | 99 | 1 | 83 | 17 | – | – | –
C=CCOc1ccc2c(c1)CCC(=O)N2CC=C [TR-G014A, 1-allyl-6-(allyloxy)-3,4-dihydroquinolin-2(1H)-one] | 82 | 19 | 68 | 32 | – | – | –
O=C1CCc2cc(OC(=O)Cc3ccccc3)ccc2N1 [TR-G007, 2-oxo-1,2,3,4-tetrahydroquinolin-6-yl 2-phenylacetate] | 91 | 9 | 82 | 18 | – | – | –
O=C(COc1ccc2c(c1)CCC(=O)N2)N/N=C/C1CCCCC1 [TR-G029, (E)-N'-(cyclohexylmethylene)-2-((2-oxo-1,2,3,4-tetrahydroquinolin-6-yl)oxy)acetohydrazide] | 82 | 18 | 68 | 32 | – | – | –
Nc1ncc(/C=N/NC(=O)COc2ccc3c(c2)CCC(=O)N3)cn1 [TR-G076, (E)-N'-((2-aminopyrimidin-5-yl)methylene)-2-((2-oxo-1,2,3,4-tetrahydroquinolin-6-yl)oxy)acetohydrazide] | 97 | 3 | 92 | 8 | – | – | –
O=C1CCc2cc(OCCCCc3nnnn3C3CCCCC3)ccc2N1Cc1ccc(Cl)cc1 [TR-G111, 1-(4-chlorobenzyl)-6-(4-(1-cyclohexyl-1H-tetrazol-5-yl)butoxy)-3,4-dihydroquinolin-2(1H)-one] | – | 32 | – | 9 | – | 68 | 91
CN1C(=O)/C(=N\NC(=O)COc2ccc3c(c2)CCC(=O)N3)c2cc(F)ccc21 [TR-G047, (Z)-N'-(5fluoro-1-methyl-2-oxoindolin-3-ylidene)-2-((2-oxo-1,2,3,4-tetrahydroquinolin-6-yl)oxy)acetohydrazide] | 77 | 23 | 62 | 38 | – | – | –

From EP4644375A1, “SUBSTITUTED HYDROQUINOLINES FOR THE TREATMENT OF GLIOBLASTOMA MULTIFORME” (Molius Saglik Teknolojileri Anonim Sirketi, priority 2024, dated 2025)
